Here are results for 3 molecules from patent publication US20220047702A1, “TARGETED MAGNETIC VEHICLES AND METHOD OF USING THE SAME” (HADASIT MEDICAL RESEARCH SERVICES AND DEVELOPMENT LTD., priority 2019, published 2022).

One data set concerns CT26 tumors. Briefly: Anti-tumor activity of systemically administered 5FU in tumor-xenografted mice. The format is in vivo. To be noted: three consecutive intraperitoneal injections, vs normal saline. As for the experimental part:
Male BALB/c mice (6 weeks of age, Envigo, Israel) were used for all in-vivo experiments. All experiments were performed with approval and in accordance with the guidelines of the Institutional Animal Care and Use Committee at The Hebrew University of Jerusalem. 1.5×10^6 CT26 cells were injected subcutaneously into the right anterior limb of each mouse. Ten days later (day 0) colorectal tumor appeared at the injection site. The mice were randomly allocated to control and experimental groups.
Following tumor creation systemic administration via intraperitoneal (IP) injection of 5FU (experiment) or normal saline (control) was performed. 5FU injections were carried out on days 3, 4, 5. Tumor progression was evaluated by measuring the tumor volume using a Vernier caliper at days 0,1,3,4,6,8 and 10.
Statistical analyses of tumor volumes were performed using RM two-way Analysis of Variation (ANOVA) with a confidence interval of 95% using post hoc Dunnet' s analysis of multiple comparisons for the tumor treated with 5FU bounded to 6×IONPs and Sidak's analysis for the tumor treated with free 5FU. Statistical analysis of iron staining quantification in the spleen was performed using the nonparametric Kruskal-Wallis test with a confidence interval of 95% using post hoc Dunn's analysis of multiple comparisons.

Data set [1] in a line: Bound avastin concentration on IO/HSA NPs (ELISA). The format is physicochemical. To be noted: via ELISA method. The procedure:
200 μl of NHS-PEG-MA [MA=melimide] (MW=3000 g/mol) were added to sterile IO/HSA nanoparticles dispersion in PBS (5 ml, 10 mg/mL). The reaction mixture was shaken at room temperature for 30 min. The derivatized PEGMA-conjugated IO/HSA NPs PBS dispersion was washed and eluted with bicarbonate buffer in a magnetic column, followed by immediate addition under sterile conditions of 40 μl of AV aqueous solution (25 mg/ml). The reaction mixture was shaken at 4° C. for 1.5 h. then, 10 weight % glycine solution (10 mg) were added to the AV-conjugated IO/HSA NPs bicarbonate aqueous dispersion to block residual sites. The AV-IO/HSA nanoparticles were then washed and eluted through a magnetic column with PBS and stored under sterile conditions.
Avastin was physically conjugated to the IO/HSA nanoparticles by adding 7.5 mg of avastin to 4 mL of the IO/HSA NPs PBS dispersion (10 mg/mL). […]
The attached and remaining concentrations of physically and covalently conjugated avastin was determined through ELISA assay using a standard protocol. The calculated covalent bound avastin concentration (via ELISA method) was 0.10 mg/1 mg of the nanoparticles. The calculated physical conjugated avastin concentration (via ELISA method) was 0.13 mg/1 mg of the nanoparticles (30% more of the covalent binding process).

The test system of data set [2] is CT26 tumor (Bev resistant). Briefly: Anti-tumor activity of Bev SPIONs in Bev resistant tumors. To be noted: 10 mg/kg (FIG. 13), without magnetic field. The format is in vivo, mice.

“Also recorded” adds a separate entry of the source.

As to `O=c1[nH]cc(F)c(=O)[nH]1` [5FU, 5-Fluorouracil], the “tumor volume / tumor growth” value in the data set with CT26 tumors is listed as “No significant changes in tumor volumes; also recorded: did not inhibit CT26 tumor growth at all; also recorded: no significant difference”.
On to “AV-IO/HSA: Avastin covalently bound via NHS-PEG-MA to IO/HSA nanoparticles”, for which, in data set [1], the “calculated bound avastin concentration” value is given as 0.10 mg/1 mg of the nanoparticles.
For the molecule bevacizumab, the tumor growth entry in data set [2] (local administration) and in data set [2] (systemic administration) was “did not yield inhibition of tumor growth; also recorded: had no effect on tumor growth” throughout.
